The subject of this data set is NCI-H460 (human NSCLC) tumor bearing nude-rats. Kind of data set: PET imaging in NCI-H460 tumor bearing nude-rats. In kind it is in vivo, nude-rats (RH-Foxn1 nu/nu). The settings on record: 8.35 MBq i.v., PET at 60 min p.i. for 10 min. The method, then: FIG. 6: PET-Imaging of (2S)-2-amino-5-[3-[^18F]fluoropropyl]hexanedioic acid in H460 tumor bearing rats. 8.35 MBq of radioactive tracer was injected i.v. into rats. PET images were obtained using the Siemens Inveon PET/CT scanner from 60 min p.i. for 10 min.
PET imaging. (2S)-2-amino-5-[3-[^18F]fluoropropyl]hexanedioic acid was examined in NCI-H460 (human NSCLC) tumor bearing nude-rats (RH-Foxn1 nu/nu) using PET-Imaging. 8.35 MBq of (2S)-2-amino-5-[3-[^18F]fluoropropyl]hexanedioic acid was injected into the rat. PET images were acquired at 60 min p.i. for 10 min. […] 3.2% of the injected dose was taken up per gram of tumor as was determined by region of interest (ROI) analysis (FIG. 6).

Regarding `N[C@@H](CCC(CCC[18F])C(=O)O)C(=O)O` (stereo partly drawn) [(2S)-2-amino-5-[3-[^18F]fluoropropyl]hexanedioic acid], the “tumor uptake by region of interest (ROI) analysis” value is on record as 3.2 % of the injected dose per gra and the “visibility of the tumor in PET images” value was “very well visible”.

The values above are taken from patent US9017645B2, “Homoglutamic acid derivatives” (Piramal Imaging SA, priority 2009, dated 2015).
